Experimental data taken from patent publication US20090227683A1, “Compositions for Providing an Analgesic Effect to the Skin” (priority 2008, published 2009).

Key:
[1] = system: Albino male CD-1 mice (neurogenic inflammation induced by Resiniferatoxin); assay: Resiniferatoxin neurogenic inflammation model in the mouse ear (ear edema); assay type: in vivo; settings: for inhibition of the neurogenic inflammatory response to resiniferatoxin, in words: summary of Tables 2 to 4
Excerpt: Neurosensory inflammation, also referred to as neurogenic inflammation, is a type of inflammation triggered by sensory nerve activation in skin. Certain natural substances that act on vanilloid receptors cause sensory nerves (C-fibers) to release inflammatory neuropeptides. In mouse skin, an edema response occurs rapidly upon application of a vanilloid receptor activator, such as capsaicin or resiniferatoxin (RTX).
Albino male CD-1 mice, 7-9 weeks old, were used. […] A 20-μL volume of Resiniferatoxin (0.05%) prepared in acetone was applied to the left ears (7 mice per treatment group). The right ear was not treated. Test agents were prepared in a 70% ethanol/30% propylene glycol vehicle and applied to the left ear (20 μL) immediately after resiniferatoxin challenge. The percent inhibition was calculated by comparing treatments to resiniferatoxin alone. Anti-neurogenic inflammation effects of compounds are evident as an inhibition of the increase in ear weight.

[2] = system: Albino male CD-1 mice (scratching induced by Compound 48/80); assay: Scratching against Compound 48/80 in mice; assay type: in vivo; settings: for effect on Compound 48/80 scratching, in words: text summary of Tables 1 and 8
Method: (§1) Albino male CD-1 mice, 7-9 weeks old, were used. Testing was based on known methods (See Liebel et al., Arch Dermatol Res. 298:191-199, 2006.) Test agents were prepared at concentrations noted in Table 1 in 100% ethanol and 50 μL was applied topically to the shaved dorsal skin 30 minutes prior to induction of scratching (8 mice per treatment group). Compound 48/80 (50 μg/50 μL: w/v) was then injected inter-dermal to the dorsal area and scratches were then counted for 30 minutes.
as §1, with “prepared” for “prepared at concentrations noted in Table 1”, “uL” for “μL”, “ug/50 uL” for “μg/50 μL:”

[3] = Table 2, topical dose 0.5 % w/v in 70% ethanol/30% propylene glycol, 20 μL to ear immediately after resiniferatoxin
[4] = Table 8, topical dose 1 % w/v in 100% ethanol, 50 uL, 30 minutes prior to Compound 48/80

[Ca+2].[Cl-].[Cl-] [Calcium Chloride, reference compound]
% Inhibition of the Ear Edema ([1]; Table 3, topical dose 1 % w/v): −3.24%

CCN(CC)CC(=O)Nc1c(C)cccc1C [Lidocaine, reference compound]
% Inhibition of the Ear Edema [1, 3]: 28.7%

Nc1cc(N2CCCCC2)nc(N)[n+]1[O-] [Minoxidil, reference compound]
% Inhibition of Scratching [2, 4]: 8.42%

CC(N/C(=N\C#N)Nc1ccncc1)C(C)(C)C (stereo not drawn) [Pinacidil, reference compound]
% Inhibition of Scratching [2, 4]: 17.03%

CC(=O)[O-].[K+] [Potassium Acetate]
% Inhibition of the Ear Edema ([1]; Table 4, topical dose 0.398 % w/v): −2.89%

O=C([O-])[O-].[K+].[K+] [Potassium Carbonate]
% Inhibition of the Ear Edema ([1]; Table 4, topical dose 0.283 % w/v): 4.52%

[Cl-].[K+] [Potassium Chloride]
% Inhibition of the Ear Edema ([1]; Table 3, topical dose 0.524 % w/v): 9.98% | % Inhibition of the Ear Edema ([1]; Table 4, topical dose 0.524 % w/v): 9.98%

CC(O)C(=O)[O-].[K+] (stereo not drawn) [Potassium Lactate]
% Inhibition of the Ear Edema ([1]; Table 2, topical dose 0.206 % w/v, 20 μL to ear immediately after resiniferatoxin): 13.52% | % Inhibition of the Ear Edema ([1]; Table 4, topical dose 0.206 % w/v): 13.52% | inhibition of the neurogenic inflammatory response to resiniferatoxin, in words [1]: failed to significantly inhibit | % Inhibition of Scratching ([2]; Table 1, topical dose 0.206 % w/v in 100% ethanol, 50 μL, 30 minutes prior to Compound 48/80): −8.84% | effect on Compound 48/80 scratching, in words [2]: very weak to no inhibition

[Cl-].[Na+] [Sodium Chloride, reference compound]
% Inhibition of the Ear Edema ([1]; Table 3, topical dose 1 % w/v): 7.06%

CC(O)CN(CCN(CC(C)O)CC(C)O)CC(C)O (stereo not drawn) [Tetrahydroxypropyl ethylenediamine, N,N,N′,N′-Tetrakis(2-hydroxypropyl)ethylenediamine]
% Inhibition of the Ear Edema ([1]; Table 2, topical dose 1 % w/v, 20 μL to ear immediately after resiniferatoxin): 4.04% | inhibition of the neurogenic inflammatory response to resiniferatoxin, in words [1]: failed to significantly inhibit | % Inhibition of Scratching ([2]; Table 1, topical dose 1 % w/v in 100% ethanol, 50 μL on shaved dorsal skin 30 minutes prior to Compound 48/80, scratches counted for 30 minutes): 9.39% | % Inhibition of Scratching [2, 4]: 9.39% | effect on Compound 48/80 scratching, in words [2]: very weak to no inhibition

CC(C)NCCN(CCNC(C)C)CCNC(C)C [Tris[2-(isopropylamino)ethylamine]
% Inhibition of the Ear Edema [1, 3]: 13.62% | inhibition of the neurogenic inflammatory response to resiniferatoxin, in words [1]: failed to significantly inhibit
